In data set [1] the test system is maximal electroshock-induced seizures. The data set is described as follows: Maximal electroshock test. Format: in vivo, mouse. The following applies: mice; for animals protected/animals tested, 0.25 hr / animals protected/animals tested, 0.5 hr / animals protected/animals tested, 1.0 hr / animals protected/animals tested, 2.0 hr / animals protected/animals tested, 4.0 hr: 100 mg/kg i.p., maximal electroshock. The method, then:
Mouse studies were performed by NIH Anticonvulsant Screening Program at the National Institute of Neurological Disorders and Stroke (Stables and Kupferberg, 1997) according to the established NIH experimental procedures outlined below. Compounds were delivered into mice by i.p. injection at a dose of 100 mg/kg in sterile 5% DMSO, 95% Neobee (Josey et al., 2013). One of four methods for seizure induction was subsequently administered to mice at 0.25, 0.5, 1, 2 and 4 h after treatment with compound. (1) Subcutaneous PTZ seizure threshold test. PTZ was administered at a concentration of 85 mg/kg, into the loose fold of skin in the midline of the neck. […] (2) Maximal electroshock test. 60 Hz of 50 mA alternating current was delivered for 0.2 s by corneal electrodes. Mice were considered protected from seizures when the hindlimb tonic extensor was absent (White et al., 1995). (3) Minimal clonic seizure (6 Hz) test. 6 Hz of 32 mA or 44 mA alternating current was delivered for 3 s by corneal electrodes to elicit a psychomotor seizure. Mice were considered protected from seizures when the automatistic behaviors were absent (Barton et al., 2001). (4) Corneal kindled mouse model. Mice were kindled electrically with a 3 s stimulation, 8 mA, 60 Hz, and corneal electrodes to a criterion of 10 consecutive Stage 5 seizures (facial clonus and head nodding progressing to forelimb clonus, and finally rearing and falling accompanied by a generalized clonic seizure as described by Racine, 1972). Animals generally reach Stage 5 after twice daily stimulation for 8 days. With continued stimulation once a day, animals usually progressed to a reproducible Stage 5 after 10-14 additional days. At least 72 hours after the mice were kindled, the test substance was administered i.p. and each animal was given the electrical stimulus indicated above. […] Treated animals not displaying a Stage 4 or 5 seizure were considered protected.
The data for each treatment is represented as the number of animals protected/number of animals tested.
The maximal electroshock-induced seizures (MES) test is a model for generalized tonic-clonic seizures and provides an indication of a compound's ability to prevent seizure spread when all neuronal circuits in the brain are maximally active. These seizures are highly reproducible and are electrophysiologically consistent with human seizures. An animal is considered “protected” from MES-induced seizures based on abolition of the hindlimb tonic extensor component of the seizure.
For orientation: The maximal electroshock test induces tonic seizures with an electrical stimulus.

Data set [2] in a line: Mouse neurotoxicity (rotorod). Format: in vivo. The following applies: mice, 100 mg/kg i.p. As to the method:
Using a 96-well plate, one zebrafish larva (7 dpf) was placed in each well in 100 μL of tank water. 100 μL of each compound was then added to each well for 12 animals (one row) for a final volume of 200 μL. One row of zebrafish larvae was used as DMSO only controls. […] Toxicity was also measured in the mouse model by the NIH Anticonvulsant Screening Program at the National Institute of Neurological Disorders and Stroke (Stables and Kupferberg, 1997), according to the established NIH experimental procedures. Compounds were delivered into mice by intraperitoneal (i.p.) injection at a dose of 100 mg/kg in sterile 5% DMSO, 95% Neobee (Josey et al., 2013). Acute toxicity was assessed by monitoring the animals for impaired neuromuscular function by placing treated mice on a rod rotating at 6 rpm. […].
Background: Falling from the rotarod earlier than controls is read as motor impairment.

In data set [3] the test system is PTZ-induced seizures. The data set is described as follows: PTZ-induced seizure (swim activity) model in zebrafish larvae. Format: in vivo, zebrafish (Danio rerio).

For `C#CCNC1=CC(=O)c2ccccc2C1=O` [Compound 2h, 2-(prop-2-yn-1-ylamino)naphthalene-1,4-dione], in data set [1], the “anticonvulsant activity in maximal electroshock test” value is recorded as “limited anticonvulsant activity”; the “animals protected/animals tested, 0.25 hr” value is reported as 0/4; the “animals protected/animals tested, 0.5 hr” value was 0/4; the “animals protected/animals tested, 1.0 hr” value was 0/4. For the same compound, in data set [1], the “animals protected/animals tested, 2.0 hr” value was 1/4 and the “animals protected/animals tested, 4.0 hr” value was 1/4. Moreover, in data set [2], the “animals displaying toxic effects/animals tested, 0.25 hr” value is reported as 0/12; the “animals displaying toxic effects/animals tested, 0.5 hr” value is 1/12; the “animals displaying toxic effects/animals tested, 1.0 hr” value was 0/12; the “animals displaying toxic effects/animals tested, 2.0 hr” value is 0/12. For the same compound, the “animals displaying toxic effects/animals tested, 4.0 hr” value in data set [2] is recorded as 0/12.

As for `O=C1C=C(NCc2ccccc2)C(=O)c2ccccc21` [Compound 2j, 2-(benzylamino)naphthalene-1,4-dione], in data set [1], the “anticonvulsant activity in maximal electroshock test” value is listed as “limited anticonvulsant activity”; the “animals protected/animals tested, 0.25 hr” value was 0/4; the “animals protected/animals tested, 0.5 hr” value is given as 0/4; the “animals protected/animals tested, 1.0 hr” value is recorded as 0/4. Besides, in data set [1], the “animals protected/animals tested, 2.0 hr” value is 2/4 and the “animals protected/animals tested, 4.0 hr” value is 0/4. Further, in data set [2], the “animals displaying toxic effects/animals tested, 0.25 hr” value is 0/12; the “animals displaying toxic effects/animals tested, 0.5 hr” value is given as 0/12; the “animals displaying toxic effects/animals tested, 1.0 hr” value is recorded as 0/12; the “animals displaying toxic effects/animals tested, 2.0 hr” value is 0/12. Besides, the “animals displaying toxic effects/animals tested, 4.0 hr” value in data set [2] is 0/12.

For `O=C1C=C(NCc2cccc(Cl)c2)C(=O)c2ccccc21` [Compound 2q, 2-((3-chlorobenzyl)amino)naphthalene-1,4-dione], in data set [1], the “animals protected/animals tested, 0.25 hr” value was 0/4; the “animals protected/animals tested, 0.5 hr” value was 0/4; the “animals protected/animals tested, 1.0 hr” value is on record as 0/4; the “animals protected/animals tested, 2.0 hr” value is on record as 0/4. The “animals protected/animals tested, 4.0 hr” value in data set [1] is 0/4. In data set [2], the “animals displaying toxic effects/animals tested, 0.25 hr” value is 0/12; the “animals displaying toxic effects/animals tested, 0.5 hr” value is recorded as 0/12; the “animals displaying toxic effects/animals tested, 1.0 hr” value is recorded as 0/12; the “animals displaying toxic effects/animals tested, 2.0 hr” value is recorded as 0/12. In addition, the “animals displaying toxic effects/animals tested, 4.0 hr” value in data set [2] is 0/12. Moreover, the “fold reduction of PTZ-induced swim activity (distance traveled)” value in data set [3] (7 dpf zebrafish, 1 h pretreatment, 15 mM PTZ, 2j 10 μM, 2h 20 μM, 2q 20 μM, 3n 8 μM) was “more than two fold”.

Turning to `CC1=CC(=O)c2ccccc2C1=O` [VK3, menadione, reference compound], the “fold reduction of distance traveled from PTZ levels” value in data set [3] (7 dpf zebrafish, 1.5 μM) came out at 0.5 fold. Further, the “fold reduction of PTZ-induced swim behavior” value in data set [3] (7 dpf zebrafish, 3 μM) was 2 fold. Also, in data set [3] (7 dpf zebrafish, 6 μM, 1 h pretreatment, 15 mM PTZ), the “fold reduction of distance traveled after PTZ treatment” value is “more than 4 fold”. The “concentrations reducing seizure activity” value in data set [3] (PTZ-treated 6 dpf zebrafish, dose dependent) was in the range of 1.5 to 6 µM.

Take menaquinones [VK2, reference compound]: in data set [3] (PTZ-treated 6 dpf zebrafish, up to 100 mM), the reduction of seizures result is given as “neither were found to reduce seizures”.

The values are drawn from patent publication US10391070B2, “Compositions and methods for treating neurological diseases or injury” (MUSC FOUNDATION FOR RESEARCH DEVELOPMENT, priority 2012, dated 2019).
